{
  "source": "patent US12195804B2",
  "about": "“Treatment of squamous cell carcinoma” (Board of Regents, The University of Texas System, priority 2018, dated 2025)",
  "key": {"[1]": {"tested_on": "HNSCC cell lines", "assay": "CellTiter-Glo cell viability assay", "type": "cell-based, human", "settings": "for cell viability, NOTCH1MUT and NOTCH1WT cell lines: 0-200 nM", "description": "Cell viability assay. […] A CellTiter-Glo luminescent cell viability assay (Promega, Madison, WI) was performed as described previously (Castel et al., 2016; Muellner et al., 2011). Inhibitory concentration (ICs) and area under the curve (AUC) values were calculated using the drexplorer R package with a best-fit dose-response model (Zumsteg et al., 2016). The combination indices were calculated using the Chou-Talalay method (Cal et al., 2017) in CalcuSyn (Biosoft, Cambridge, UK). We tested the reproducibility and robustness of the data generated using three quality control parameters as described previously (Bohnacker et al., 2017). These parameters were the concordance correlation coefficient, location shift, and maximum standard deviation between two biological replicates for three technical and two biological replicates. Based on heuristics from our previous screening studies in lung cancer (Bohnacker et al., 2017), the cut-offs for reproducibility were a concordance correlation coefficient greater than 0.8, a location shift less than 0.9, and a standard deviation less than 0.23 based on the normal mixture fit model. Experiments not satisfying these criteria were repeated. The replicate with the smallest experimental variation measured by the median of standard deviation was chosen as a representative of the replicates, and its IC values served as the final values for subsequent analysis.\nCell lines were classified as sensitive based on IC70 values less than the peak plasma concentration for each drug. To determine if cross-comparison of the PI3K/mTOR inhibitors as a class was feasible, their drug sensitivity patterns were compared with those of three cell cycle kinase inhibitors tested previously (Zhang et al., 2017). The PI3K/mTOR pathway inhibitors clustered separately from the cell cycle inhibitors (FIG. 12C)."}, "[2]": {"tested_on": "HNSCC cell lines", "assay": "Apoptosis assays (Annexin V/propidium iodide, BrdU TUNEL, cleaved PARP/caspase 3)", "type": "cell-based, human", "settings": "alone, regardless of NOTCH1 status", "description": "FIGS. 7A-7D: PI3K/mTOR signaling inhibition induces cell death in NOTCH1^MUT but not NOTCH1^WT head and neck squamous cell carcinoma (HNSCC) cell lines in vitro. FIG. 7A. Annexin V/propidium iodide or BrDU-terminal deoxynucleotidyl transferase (TdT) dUTP nick-end labeling (TUNEL) assays were used to measure apoptosis in HNSCC cells with the indicated NOTCH1 and PIK3CA mutations, which were treated with 50 nM GSK2126458 (GSK212) for 24 or 48 hours, respectively. Values are the means±standard deviations of three independent experiments. *p<0.05, unpaired two-tailed Student t-test. FIG. 7B. Western blotting of cleaved PARP (Cl-PARP) and cleaved caspase 3 (Cl-Caspase 3) levels in mutant and wild type cells after GSK212 treatment for 48 hours. FIG. 7C. NOTCH1^MUT and NOTCH1^WT HNSCC cells were plated sparsely and treated with GSK212 at the indicated concentrations for 48 hours. At 14-21 days after treatment, the cells were fixed and stained, images were captured using the GelCount Tumour Colony Counter, and colony numbers and the colorimetric intensity of the colonies were determined by measuring the optical density (OD) at 570 nm. Values are the means±standard deviations of three independent experiments. *p<0.001, unpaired two-tailed Student t-test. FIG. 7D. Three NOTCH1^WT lines (black text and bars) and three NOTCH1^MUT lines (red text and bars) were treated with increasing concentrations of GSK212 for 4 hours, and levels of PI3K/mTOR pathway proteins were measured by Western blot analysis.\nWestern blot analysis. Western blot analysis was performed as described previously (Ferrarotto et al., 2016). In brief, cells were lysed with ice-cold lysis buffer, and the lysates were centrifuged at 20,000×g for 10 minutes at 4° C. Cell samples containing equal amounts of protein were resolved using sodium dodecyl sulfate-polyacrylamide gel electrophoresis, transferred to nitrocellulose membranes, and immunoblotted with different primary antibodies. Protein expression was detected using a horseradish peroxidase-conjugated secondary antibody (Bio-Rad, Hercules, CA) and electrochemiluminescence reagent (Amersham Biosciences, Pittsburg, PA).\nApoptosis and cell cycle assays. To measure apoptosis, we performed terminal deoxynucleotidyl transferase dUTP nick end labeling (TUNEL) staining with an APO-BRDU Kit (BD Biosciences, San Jose, CA) and Annexin V/propidium iodide staining with an FITC Annexin V Apoptosis Detection Kit (BD Pharmingen, San Diego, CA) as described previously (Chandarlapaty et al., 2011). […] Data were acquired with a three-laser, 10-color Gallios flow cytometer (Beckman Coulter, Brea, CA) and analyzed using Kaluza software (Beckman Coulter, Brea, CA). […]"}, "[3]": {"tested_on": "pAKT, pS6 and p4EBP1 in HNSCC cell lines", "assay": "Western blot of PI3K pathway signaling after bimiralisib", "type": "cell-based, human", "settings": "four HNSCC cell lines, 2 hours", "description": "Cells were lysed and then resolved by SDS PAGE. Western blot analysis was performed using the indicated antibodies."}, "[4]": {"tested_on": "HNSCC cell lines", "assay": "Sensitivity of 69 HNSCC cell lines to bimiralisib", "type": "cell-based, human", "source_text": "IC50 values were estimated from the best-fit dose-response model selected by calculating residual standard error using the R packages Dose Finding and drc (dose response curve) (Ritz and Streibig 2005, Bornkamp, Bretz et al. 2011). All experiments were done in duplicate and we compared the response between two experiments using concordance correlation coefficient (CCC). The CCC can be computed based on the scaled response as well as original unscaled response. The scaled version should be more relevant since this is actually the data used in IC estimation. […] To identify differentially expressed features between the comparative groups, we applied modified two-sample t-tests using the Limma package. The beta-uniform mixture (BUM) model, described by Pounds and Morris was used to control false discovery rate (FDR) (Pounds and Morris 2003)."}, "[5]": {"tested_on": "HNSCC cell lines", "assay": "BrdU TUNEL cell death, cell cycle and apoptosis markers after bimiralisib", "type": "cell-based, human", "settings": "5 μM", "source_text": "Apoptotic death in NOTCH1 mutants, but not wt cell lines, was confirmed with cleaved PARP and Caspase 3."}, "[6]": {"tested_on": "other protein kinases", "settings": "cited from earlier work"}, "[7]": {"settings": "human, oral; cited from earlier work"}, "[8]": {"settings": "administered orally; cited from earlier work"}, "[9]": {"tested_on": "pAKT, pS6 and p4EBP", "settings": "therapeutic doses; cited from earlier work"}, "[10]": {"tested_on": "UM22A, HN31 and FaDu HNSCC xenografts", "assay": "Orthotopic tongue xenografts treated with bimiralisib", "settings": "for tumor growth: 50 mg/kg PO once daily 28 days"}, "[11]": {"tested_on": "EGFR^MUT lung cancers", "settings": "EGFRMUT lung cancers; cited from earlier work"}},
  "data": [
    {"smiles": "COc1c(OCCCN2CCOCC2)ccc2c1N=C(NC(=O)c1cnc(N)nc1)N1CCN=C21", "note": "[BAY806946]", "values": [
      {"measurement": "cell viability, NOTCH1MUT and NOTCH1WT cell lines", "setting": "[1]; 72 hours", "value": "differential effects"}
    ]},
    {"smiles": "Nc1cc(C(F)(F)F)c(-c2cc(N3CCOCC3)nc(N3CCOCC3)n2)cn1", "note": "[BKM120]", "values": [
      {"measurement": "effectiveness across HNSCC cell lines (IC70)", "setting": "[1]; 59 HNSCC cell lines, 72 hours", "value": "almost universally effective"}
    ]},
    {"smiles": "CNc1nc(-c2ccc3c(N)n[nH]c3c2)cc(N2C[C@@H](C(=O)NC3CCCCC3)CC[C@H]2C)n1", "note": "[GSK2334470]", "values": [
      {"measurement": "cell viability", "setting": "[1]; alone, regardless of NOTCH1 status", "value": "little effect"},
      {"measurement": "apoptosis", "setting": "[2]", "value": "little effect"}
    ]},
    {"smiles": "NC1(c2ccc(-c3nc4ccn5c(=O)[nH]nc5c4cc3-c3ccccc3)cc2)CCC1", "note": "[MK-2206]", "values": [
      {"measurement": "cell viability, NOTCH1MUT and NOTCH1WT cell lines", "setting": "[1]; 72 hours", "value": "resistant"}
    ]},
    {"smiles": "Nc1cc(C(F)(F)F)c(-c2nc(N3CCOCC3)nc(N3CCOCC3)n2)cn1", "note": "[bimiralisib, 5-(4,6-Dimorpholino-1,3,5-triazin-2-yl)-4-(trifluoromethyl)pyridin-2-amine]", "values": [
      {"measurement": "pAKT, pS6 and p4EBP1 (Western blot)", "setting": "[3]", "value": "decrease"},
      {"measurement": "pAKT, pS6 and p4EBP1 (Western blot)", "setting": "[3]; listed as Bimiralisib", "value": "inhibits PI3K pathway signaling"},
      {"measurement": "IC50", "setting": "[4]; Homo sapiens, 66 of 69 HNSCC cell lines", "value": "< 3000", "unit": "nM"},
      {"measurement": "number of cell lines Resistant", "setting": "[4]; NOTCH1 Mutant cell lines", "value": 3},
      {"measurement": "number of cell lines Sensitive", "setting": "[4]; NOTCH1 Mutant cell lines", "value": 12},
      {"measurement": "number of cell lines Resistant", "setting": "[4]; NOTCH1 WT cell lines", "value": 20},
      {"measurement": "number of cell lines Sensitive", "setting": "[4]; NOTCH1 WT cell lines", "value": 18},
      {"measurement": "cell death by BrdU-TUNEL", "setting": "[5]; 48 hours, HNSCC lines with NOTCH1 mutations", "value": "significantly increased"},
      {"measurement": "cell cycle effect", "setting": "[5]; HNSCC NOTCH1wt lines", "value": "arrested cell lines in G1/S"},
      {"measurement": "inhibition of other protein kinases (KINOMEscan)", "setting": "[6]", "value": "does not significantly inhibit"},
      {"measurement": "Tmax", "setting": "[7]", "value": "< 2", "unit": "h"},
      {"measurement": "terminal half-life", "setting": "[7]", "value": 51, "unit": "h"},
      {"measurement": "crossing of the blood-brain barrier", "setting": "[8]", "value": "crosses the blood-brain barrier"},
      {"measurement": "pAKT, pS6 and p4EBP in tumor tissue", "setting": "[9]", "value": "marked decreases"},
      {"measurement": "tumor growth", "setting": "[10]; FaDu (NOTCH1wt)", "value": "not affected"},
      {"measurement": "tumor growth", "setting": "[10]; UM22A and HN31 (NOTCH1 inactivating mutations)", "value": "significant reduction of tumor growth"},
      {"measurement": "body weight", "setting": "[10]; 50 mg/kg PO once daily, 28 days, mice", "value": "without body weight loss"}
    ]},
    {"smiles": "C=CC(=O)Nc1cc(Nc2nccc(-c3cn(C)c4ccccc34)n2)c(OC)cc1N(C)CCN(C)C", "note": "[osimertinib]", "values": [
      {"measurement": "response rate", "setting": "[11]", "value": "about 80%"}
    ]},
    {"smiles": "CO[C@H]1C[C@@H]2CC[C@@H](C)[C@@](O)(O2)C(=O)C(=O)N2CCCC[C@H]2C(=O)O[C@H]([C@H](C)C[C@@H]2CC[C@@H](OP(C)(C)=O)[C@H](OC)C2)CC(=O)[C@H](C)/C=C(\\C)[C@@H](O)[C@@H](OC)C(=O)[C@H](C)C[C@H](C)/C=C/C=C/C=C/1C", "note": "[ridaforolimus]", "values": [
      {"measurement": "cell viability, NOTCH1MUT and NOTCH1WT cell lines", "setting": "[1]; 72 hours", "value": "resistant"}
    ]}
  ]
}
